# Test results taken from patent US8349835B2, “Aromatic ring fused triazine derivatives and uses thereof” (Shenyang Pharmaceutical University, priority 2008, dated 2013).
# System: Rat aortic ring
# Experiment: Rat Aortic Ring Assay
# Assay type: cell-based
# Conditions: Rattus norvegicus; 10 ug/ml, compared with blank control, sixth day
# From the text: Rat Aortic Ring Assay • 1) 6 week old SD […] (Sprague Dawley) were selected for the experiments. Cleaned abdominal skin with 75% ethanol to disinfect, and then anesthetized the mice with ether, • 2) Carefully removed the abdominal aortas and transferred the aortas to normal saline. Excessive vascular tissues were carefully removed with scissors. • 3) The aortas were rinsed with normal saline until no blood stain remained. • 4) Sectioned the aortas into one millimeter depth arterial slices with ophthalmological scissors. • 5) Add 50 μL pre-thawed Matrigel to each well of the pre-cooled 96 well cell culture plates, and embedded the ring-shaped mouse aortas in collagen gel. • 6) Incubated for 60 minutes at 37° C. to solidificate the gel. • 7) Added DMEM culture solution containing 10% FBS, along with different concentrations of the selected compounds into the wells and cultured in the incubator. Every compound was repeated in no less than 3 wells. • 8) Replaced with the fresh medium and changed the medicine once on the third day. • 9) Took out the pates on the sixth day, and observed the vascular growth with Microscope (OLYMPUS, DP70, Japan) and took photographs(×100). Randomly chose 3 arterial rings to photograph and calculated the area covered by micro-vascular with Image Pro Plus software. The inhibition rate is calculated as:
# [formula] • Evaluation criteria: ⋆inhibition rate[…]; ⋆⋆inhibition rate 60-90%; ⋆⋆⋆inhibition rate>90%.
row,SMILES,inhibition at 10 µg/mL
1,"COc1cc2c(Nc3cc(F)cc(F)c3)nnnc2cc1OCCCCl [Example 64, 6-methoxy-7-chloropropoxy-4-(3,5-difluoroanilino)-benzo[d][1,2,3]triazine]",> 50%
2,"CCOc1cc2nnnc(Nc3ccccc3)c2cc1OC [Example 28, 6-methoxy-7-ethoxy-4-anilino-benzo[d][1,2,3]triazine]",~40%
3,"CCOc1cc2nnnc(Nc3ccc(C(F)(F)F)cc3)c2cc1OC [Example 35, 6-methoxy-7-ethoxy-4-(4-trifluoromethylanilino)-benzo[d][1,2,3]triazine]",~40%

# Same assay, conditions: compared with blank control, sixth day
row,SMILES,"Rat Aortic Ring Assay (10 ug/ml), inhibition"
1,"COc1cc2c(Nc3ccc(F)c(Cl)c3)nnnc2cc1OCCCN1CCN(C)CC1.Cl [Example 96, 6-methoxy-7-(3-N-methylpiperazin-1-yl-propoxy)-4-(3-chloro-4-fluoroanilino)-benzo[d][1,2,3]triazin-4-amine hydrochloride]","Vessel formation became less, about 30% inhibition"

# Same assay, conditions: observed on the sixth day
row,SMILES,"Rat Aortic Ring Assay (10 ug/ml), result in words"
1,"CCCCOc1cc2nnnc(Nc3ccc(C(F)(F)F)cc3)c2cc1OC [Example 18, 6-methoxy-7-n-butoxy-4-(4-trifluoromethylanilino)-benzo[d][1,2,3]triazine]",No significant inhibition
2,"CCCCOc1cc2nnnc(Nc3cccc(C(F)(F)F)c3)c2cc1OC [Example 17, 6-methoxy-7-n-butoxy-4-(3-trifluoromethylanilino)-benzo[d][1,2,3]triazine]",No significant inhibition compared with the blank control
3,"COc1cc2c(Nc3ccc(F)c(Cl)c3)nnnc2cc1OCCCN1CCCCC1.Cl [Example 95, 6-methoxy-7-(3-(piperidin-1-yl)-propoxy)-4-(3-chloro-4-fluoroanilino)-benzo[d][1,2,3]triazine hydrochloride]","Vascular growth was significantly inhibited, vascular ring was dead."
4,"CCOc1cc2nnnc(Nc3ccc(C)cc3)c2cc1OC [Example 43, 6-methoxy-7-ethoxy-4-(4-methylanilino)-benzo[d][1,2,3]triazine]",No significant inhibition
5,"COc1cc2c(Nc3ccc(F)c(Cl)c3)nnnc2cc1OCCCN1CCOCC1 [Example 94, 6-methoxy-7-(3-morpholinopropoxy)-4-(3-chloro-4-fluoroanilino)-benzo[d][1,2,3]triazine]",No significant inhibition

# Molecular target: VEGFR-2 (Homo sapiens, UniProt P35968)
# Sequence (P35968 20-1356): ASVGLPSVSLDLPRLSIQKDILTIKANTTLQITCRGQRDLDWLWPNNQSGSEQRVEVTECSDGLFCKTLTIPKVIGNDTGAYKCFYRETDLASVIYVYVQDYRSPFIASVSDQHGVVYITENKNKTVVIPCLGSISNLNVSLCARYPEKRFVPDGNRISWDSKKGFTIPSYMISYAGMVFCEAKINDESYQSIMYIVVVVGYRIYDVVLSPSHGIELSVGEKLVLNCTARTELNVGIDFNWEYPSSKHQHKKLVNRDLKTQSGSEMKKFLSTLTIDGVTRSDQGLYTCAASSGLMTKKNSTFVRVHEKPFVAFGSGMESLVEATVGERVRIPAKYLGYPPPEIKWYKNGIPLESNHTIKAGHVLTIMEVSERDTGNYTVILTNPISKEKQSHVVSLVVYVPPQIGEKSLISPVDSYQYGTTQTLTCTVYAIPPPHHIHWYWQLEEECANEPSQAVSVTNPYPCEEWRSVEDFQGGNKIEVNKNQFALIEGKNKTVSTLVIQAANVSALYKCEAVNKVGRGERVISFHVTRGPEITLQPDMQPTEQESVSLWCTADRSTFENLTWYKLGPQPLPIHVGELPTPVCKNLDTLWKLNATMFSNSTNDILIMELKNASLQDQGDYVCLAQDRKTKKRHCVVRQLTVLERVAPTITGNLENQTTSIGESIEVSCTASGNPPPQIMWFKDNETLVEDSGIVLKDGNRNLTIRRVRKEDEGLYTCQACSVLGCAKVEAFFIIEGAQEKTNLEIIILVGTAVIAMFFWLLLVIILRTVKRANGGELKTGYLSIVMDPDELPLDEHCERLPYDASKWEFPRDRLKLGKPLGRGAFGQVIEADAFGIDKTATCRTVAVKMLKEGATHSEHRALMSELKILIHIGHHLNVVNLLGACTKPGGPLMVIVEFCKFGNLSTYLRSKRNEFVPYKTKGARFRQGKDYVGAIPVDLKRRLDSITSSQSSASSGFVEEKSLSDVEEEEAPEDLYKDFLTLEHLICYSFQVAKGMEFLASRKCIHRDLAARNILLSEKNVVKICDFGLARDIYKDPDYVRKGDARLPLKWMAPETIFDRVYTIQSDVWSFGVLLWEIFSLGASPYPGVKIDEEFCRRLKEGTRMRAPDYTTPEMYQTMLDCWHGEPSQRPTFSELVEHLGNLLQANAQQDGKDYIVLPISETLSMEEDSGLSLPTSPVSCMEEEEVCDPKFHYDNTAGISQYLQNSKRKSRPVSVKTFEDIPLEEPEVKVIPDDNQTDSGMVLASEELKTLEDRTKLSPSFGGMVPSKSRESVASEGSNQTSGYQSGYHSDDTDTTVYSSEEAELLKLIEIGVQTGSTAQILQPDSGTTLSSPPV
# Experiment: VEGFR-2 inhibition rate test (kinase assay kit, colorimetric ELISA)
# Conditions: concentration not given
row,SMILES,Kinase inhibition rate (VEGFR-2)
1,"COc1cc2c(Nc3cc(F)cc(F)c3)nnnc2cc1OCCCCl [Example 64, 6-methoxy-7-chloropropoxy-4-(3,5-difluoroanilino)-benzo[d][1,2,3]triazine]",10.73
2,"CCCCCOc1cc2nnnc(Nc3cc(Cl)cc(Cl)c3)c2cc1OC [Example 46, 6-methoxy-7-pentyloxy-4-(3,5-dichloroanilino)-benzo[d][1,2,3]triazine]",−0.53
3,"CCCCOc1cc2nnnc(Nc3ccc(C(F)(F)F)cc3)c2cc1OC [Example 18, 6-methoxy-7-n-butoxy-4-(4-trifluoromethylanilino)-benzo[d][1,2,3]triazine]",3.20
4,"CCCCOc1cc2nnnc(Nc3ccc(F)cc3)c2cc1OC [Example 26, 6-methoxy-7-n-butoxy-4-(4-fluoroanilino)-benzo[d][1,2,3]triazine]",9.89
5,"Fc1cc(F)cc(Nc2nnnc3ccccc23)c1 [Example 5, 4-(3,5-difluoroanilino)-benzo[d][1,2,3]triazine]",−5.34
6,"CCCCOc1cc2nnnc(Nc3cccc(C(F)(F)F)c3)c2cc1OC [Example 17, 6-methoxy-7-n-butoxy-4-(3-trifluoromethylanilino)-benzo[d][1,2,3]triazine]",−5.34
7,"CCCCCOc1cc2nnnc(Nc3cccc(Br)c3)c2cc1OC [Example 58, 6-methoxy-7-pentyloxy-4-(3-bromoanilino)-benzo[d][1,2,3]triazine]",−5.61
8,"CCCCCOc1cc2nnnc(Nc3ccc(C)cc3)c2cc1OC [Example 60, 6-methoxy-7-pentyloxy-4-(4-methylanilino)-benzo[d][1,2,3]triazine]",7.75
9,"CCOc1cc2nnnc(Nc3ccccc3)c2cc1OC [Example 28, 6-methoxy-7-ethoxy-4-anilino-benzo[d][1,2,3]triazine]",45.98
10,"Fc1cc(Nc2nnnc3ccccc23)ccc1Br [Example 8, 4-(3-fluoro-4-bromoanilino)-benzo[d][1,2,3]triazine]",−6.95
11,"CCCCCOc1cc2nnnc(Nc3ccccc3)c2cc1OC [Example 44, 6-methoxy-7-pentyloxy-4-anilino-benzo[d][1,2,3]triazine]",−22.45
12,"Fc1ccc(Nc2nnnc3ccccc23)cc1C(F)(F)F [Example 9, 4-(3-trifluoromethyl-4-fluoroanilino)-benzo[d][1,2,3]triazine]",1.60
13,"CCOc1cc2nnnc(Nc3ccc(C)cc3)c2cc1OC [Example 43, 6-methoxy-7-ethoxy-4-(4-methylanilino)-benzo[d][1,2,3]triazine]",43.56
14,"Fc1ccc(Nc2nnnc3ccccc23)cc1Cl [Example 1, 4-(3-chloro-4-fluoroanilino)-benzo[d][1,2,3]triazine]",3.47
15,"CCCCOc1cc2nnnc(Nc3ccccc3)c2cc1OC [Example 11, 6-methoxy-7-butoxy-4-anilino-benzo[d][1,2,3]triazine]",−4.27
16,"CCCCOc1cc2nnnc(Nc3ccc(Cl)cc3)c2cc1OC [Example 16, 6-methoxy-7-n-butoxy-4-(4-chloroanilino)-benzo[d][1,2,3]triazine]",−12.03
17,"CCCCCOc1cc2nnnc(Nc3cccc(Cl)c3)c2cc1OC [Example 54, 6-methoxy-7-pentyloxy-4-(3-chloroanilino)-benzo[d][1,2,3]triazine]",3.20
18,"Clc1cc(Cl)cc(Nc2nnnc3ccccc23)c1 [Example 10, 4-(3,5-dichloroanilino)-1,2,3-benzotriazine]",−2.67
19,"CCCCCOc1cc2nnnc(Nc3ccccc3F)c2cc1OC [Example 57, 6-methoxy-7-pentyloxy-4-(2-fluoroanilino)-benzo[d][1,2,3]triazine]",10.42
20,"Fc1ccc(Nc2nnnc3ccccc23)cc1 [Example 2, 4-(4-fluoroanilino)-benzo[d][1,2,3]triazine]",−22.99
21,"CCCCOc1cc2nnnc(Nc3ccc(Br)c(F)c3)c2cc1OC [Example 12, 6-methoxy-7-n-butoxy-4-(3-fluoro-4-bromoanilino)-benzo[d][1,2,3]triazine]",9.09
22,"COc1cc2c(Nc3cccc(Cl)c3)nnnc2cc1OCCCCl [Example 71, 6-methoxy-7-chloropropoxy-4-(3-chloroanilino)-benzo[d][1,2,3]triazine]",21.14
23,"CCCCCOc1cc2nnnc(Nc3cccc(OC(F)(F)F)c3)c2cc1OC [Example 52, 6-methoxy-7-pentyloxy-4-(3-trifluoromethoxyanilino)-benzo[d][1,2,3]triazine]",2.13
24,"CCCCOc1cc2nnnc(Nc3cc(F)cc(F)c3)c2cc1OC [Example 14, 6-methoxy-7-n-butoxy-4-(3,5-difluoroanilino)-benzo[d][1,2,3]triazine]",−0.80
